Source: patent publication US20240279201A1, “DUAL WNT SIGNALING PATHWAY INHIBITORS AND AMPK ACTIVATORS FOR TREATMENTS OF DISEASE” (priority 2021, published 2024)
“Also recorded” adds a separate entry of the source.

Experiments:
physchem = test: physchem
Description: The ADMET and PK properties of YA6060 was determined.
Determination of physiochemical properties. The profiles of six selected analogs is estimated in silico, and selected Axin stabilizers are evaluated in in vitro assays: the aqueous solubility is determined using a multiscreen solubility filter plate (Millipore, Billerica, MA) coupled with LC-MS/MS, as performed for the already synthesized YA6060 analogs; the cell viability assays on selected analogs is measured using HEK293 cells; the intestinal permeability by determining the transport from the apical to the basolateral (A to B) in Caco-2 monolayers; the metabolic stability by incubating the compounds with mouse microsomes and liver tissue S9 fraction and analyzing by LC-MS/MS.

[1] = Toxicity evaluation in mice (oral gavage); assay type: in vivo
Description: FIG. 8 illustrates the preliminary toxicity evaluated for YA6060 in major mouse organs. […] 11 weeks C57BL/6 mice were treated for […]. The isolated tissues were stained by Haematoxylin and Eosin (H&E). The images were taken under an amplification of 20×.
Body weight change was measured over time in mice received YA6060. […]

[2] = Toxicity in normal HEK293 cells; assay type: cell-based; details: human
Description: YA6060 has an excellent druglike profile. […] The ADMET and PK properties of YA6060 was determined.

[3] = tested on: DMNA-induced liver fibrosis; test: Dimethylnitrosamine (DMNA) liver fibrosis mouse model; assay type: in vivo, C57BL/6 mice
Description: FIG. 4 illustrates that YA6060 protects liver from damage caused by dimethylnitrosamine (DMNA). Vehicle (top panels) or 10 mg/kg DMNA (bottom panels) was given on a Monday-Tuesday-Wednesday schedule each week; YA6060 or vehicle was given daily. After sacrifice of mice (6/group) at 4 weeks, paraffin sections were stained with Sirius Red to visualize collagen. […] Bars, 100 μm.
FIG. 10 is a graph of experimental data illustrating anti-fibrotic efficacy of YA6060 in mice. C57BL/6 mice received dimethylnitrosamine (DMNA, 10 mg/kg/d i.p. for 3d and then rest for 4d) or saline, with or without YA6060 (0.5 mg/kg/d) for 4 weeks. The fibrosis and inflammation biomarkers were examined by RT-PCR with the liver tissues.
FIG. 11A-FIG. 11C illustrate the effect of YA6060 on liver function in mice. C57BL/6 mice received dimethylnitrosamine (DMNA, 10 mg/kg/d i.p. for 3d and then rest for 4d) or saline, with or without YA6060 (0.5 mg/kg/d) for 4 weeks. The serum biochemistry was determined for alanine aminotransferase (ALT) and aspartate aminotransferase (AST) (FIG. 11A), albumin (FIG. 11B), and total bilirubin (FIG. 11C).
The effect of YA6060 treatment on the expression of fibrotic markers in LX-2 cells was examined. LX-2 cells were treated with TGF-beta to model fibrosis. Protein expression of collagen 1, vimentin, and alpha-SMA by Western blotting (FIG. 14A). mRNA expression of collagen 1, vimentin, and alpha-SMA by RT-PCR was examined (FIG. 14B). mRNA expression of genes associated with inflammation by RT-PCR was examined (FIG. 14C). The cells were treated with the indicated concentrations of YA6060 for 24 hours. *P<0.05, **P<0.01. The effect of YA6060 treatment on liver fibrosis in mice was also examined (FIG. 15). […]
Fibrosis in the liver tissues of the mice that received YA6060 treatment was quantified (FIG. 16). […] The collagen of liver tissues was stained by Sirius red (SR) and quantitated by Image J software. ***P<0.001. […]

AMPK = test: Western blotting of phosphorylated AMPK in HEK293 cells; assay type: cell-based; details: 100 nM, 24 h
Description: (§1) FIG. 6A-FIG. 6E illustrate the development of Axin stabilizers with dual activities of Wnt inhibition and AMPK activation. […] HEK293 cells were used. B&C: 100 nM compounds, 24 h. FIG. 6D is a table showing the activity profile of YA6060. F=bioavailability; soubility is aqueous solubility.
(§2) A dual-luciferase gene reporter assay was used to test inhibitory activities of new compounds on Wnt signaling. […] Axin is also reported to form a complex with AMPK and its upstream kinase LKB1 (FIG. 12A and FIG. 12B) to facilitate AMPK activation. Therefore, the effects of new compounds on AMPK was examined. […] YA6060 and its analogs had dual activities of potent Wnt signaling inhibition and AMPK activation, which were dependent on the levels of scaffolding protein Axin.

β-catenin = β-catenin (Homo sapiens (Human), UniProt P35222); test: Western blotting of β-catenin in HEK293 cells; assay type: cell-based; details: 100 nM, 24 h
Description: as §1, §2

Hygroscopicity = assay type: physicochemical; details: HCl salt
Excerpt: This Example provides evidence to access the therapeutic potential of simultaneously targeting Wnt signaling and AMPK pathways as novel anti-CRC therapeutic strategy. […] In addition, the chemical structure of YA6060 contains multiple C—H bonds that are liable to P450-mediated oxidations in the liver. Therefore, novel YA6060 analogs with acceptable non-hygroscopicity along with excellent metabolic stability are highly desirable for its further development.
Non-hygroscopic salts of YA6060. YA6060 is an HCl salt with high hygroscopicity. YA6060 can readily absorb moisture from the environment that limits the stability and the further therapeutic application of the compound. Non-hygroscopic salts of YA6060 are generated by screening the anionic of the neutral amino parent YA6060 with a panel of acids that has been reported to form acceptably non-hygroscopic salts. Specific acids include valproic (1), maleic (2), tartaric (3), oxalic (4) and pamoic (5) acids, to get the corresponding salts.

## Cc1ccccc1-n1nnc(C(=O)Nc2ccc3cc(CN4CCNCC4)ccc3n2)c1C [YA6060]
physchem
  aqueous solubility: > 75 mg/mL
  increase in aqueous solubility from FX1128 and FX2065: over 10,000 fold
physchem; water, aqueous solubility
  solubility: > 78 mg/mL
[1]; C57BL/6, mouse, in vivo, oral, 500 mg/kg, mice, single dose
  MTD at 21 days: > 500 mg/kg
[1]; mouse, in vivo, po
  acute toxicity test (body weight change): did not exhibit acute toxicity
[1]; oral gavage 500 mg/kg once, 21-day evaluation
  toxicity / tolerability in mice, histology of major organs: no obvious toxicity; also recorded: no noticeable toxic effects; also recorded: well tolerated; also recorded: No histological changes
[1]; single dose of 500 mg/kg
  safety margin over an efficacy dose (0.5 mg/kg) for liver fibrosis: > 1,000 fold
[2]
  IC50: > 100 µM
[3]; 0.5 or 5 mg/kg/day, 4 weeks
  liver fibrosis (Sirius Red): reduced dimethylnitrosamine (DMNA)-induced fibrosis; also recorded: strong protective effects
[3]; DMNA 4 weeks
  inflammation infiltration (H&E hepatic histology): ameliorated
[3]; YA6060 co-treatment with DMNA
  liver function (serum ALT, AST, albumin, total bilirubin): normal liver function
AMPK
  levels of phosphorylated AMPK (p-AMPK): significantly increased
β-catenin
  protein level of β-catenin: decreased
Hygroscopicity
  hygroscopicity: highly hygroscopic
